Data taken from PubChem BioAssay (NCI).
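How tested: cells in 96-well plates exposed to compound for 48 hours at five concentrations. GI50: concentration for 50% inhibition of growth. TGI: concentration producing complete growth inhibition.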

What was measured:
Experiment in all cases: NCI anticancer screen, dose series, 48 h
SF-295 CNS = system: SF-295 CNS
RXF 393 renal = system: RXF 393 renal
T-47D breast = system: T-47D breast
SF-539 CNS = system: SF-539 CNS
SR leukemia = system: SR leukemia
U251 CNS = system: U251 CNS
SK-MEL-28 melanoma = system: SK-MEL-28 melanoma
HT29 colon = system: HT29 colon

| SMILES | GI50 (SF-295 CNS) | TGI (SF-295 CNS) | GI50 (RXF 393 renal) | TGI (RXF 393 renal) | GI50 (T-47D breast) | TGI (T-47D breast) | GI50 (SF-539 CNS) | TGI (SF-539 CNS) | GI50 (SR leukemia) | TGI (SR leukemia) | GI50 (U251 CNS) | TGI (U251 CNS) | GI50 (SK-MEL-28 melanoma) | TGI (SK-MEL-28 melanoma) | GI50 (HT29 colon) | TGI (HT29 colon) |
| --- | --- | --- | --- | --- | --- | --- | --- | --- | --- | --- | --- | --- | --- | --- | --- | --- |
| CSC1=Nc2c(c(C)c(C)n2COC(CO)CO)C2=NC(=O)CN12 | > 100 µM | > 100 µM | > 100 µM | > 100 µM | > 100 µM | > 100 µM | > 100 µM | > 100 µM | > 100 µM | > 100 µM | > 100 µM | > 100 µM | > 100 µM | > 100 µM | > 100 µM | > 100 µM |
| O=C1CC(c2ccccc2)Oc2ccccc21 (stereo not drawn) |  | > 100 µM |  | 94.4 µM |  | > 100 µM |  | 55 µM |  | 50.6 µM |  | > 100 µM |  | > 100 µM |  | 59.7 µM |
| Cc1c(C(=N)C(C#N)C#N)c(=N)oc2c1ccc1ccccc12 | 33.9 µM | > 100 µM | 2.76 µM | 15.4 µM | 10.1 µM | > 100 µM | 20.6 µM | 71.5 µM | 7.64 µM | > 100 µM | 14.5 µM | 37.2 µM | 22.5 µM | 60.8 µM | 20.5 µM | 71.1 µM |
| CCN=c1sc2c(n1NC(=O)c1cc3ccc1CCc1ccc(cc1)CC3)C(=O)c1ccccc1C2=O | 0.951 µM | 2.64 µM | 0.504 µM | 0.976 µM | 0.706 µM | 2.34 µM | 0.556 µM | 1.04 µM | 0.815 µM | 9.91 µM | 0.498 µM | 1.04 µM | 0.663 µM | 1.18 µM | 1.4 µM | 19.2 µM |
| CN(C)CCCC1(c2ccc(F)cc2)OCc2cc(-c3cccc4[nH]ccc34)ccc21 (stereo not drawn) | 1.84 µM | 3.44 µM | 1.46 µM | 2.88 µM | 1.75 µM | 3.78 µM | 1.67 µM | 3.12 µM | 0.973 µM | 2.97 µM | 1.52 µM | 2.89 µM | 1.83 µM | 3.27 µM | 1.6 µM | 3.39 µM |
| COc1ccc2c(N)ncc(C#Cc3cc(C(=O)Nc4ccc(CN5CCN(C)CC5)c(C(F)(F)F)c4)cnc3C)c2c1 | 4.78 µM | 16.7 µM | 0.502 µM | 1.11 µM | 13.5 µM | 25.4 µM | 0.597 µM | 1.12 µM | 0.649 µM | 1.97 µM | 0.581 µM | 1.15 µM | 0.66 µM | 1.81 µM | 0.194 µM | 0.876 µM |
| COc1ccc2c(c1)c(-c1nc(-c3c[nH]c4ncccc34)cs1)cn2CCCN1CCOCC1 | 1.91 µM | 4.17 µM | 2.09 µM | 4.88 µM | 2.07 µM | 7.83 µM | 1.74 µM | 3.67 µM | 2.3 µM | 7 µM | 2.25 µM | 5.09 µM | 1.95 µM | 3.83 µM | 2.22 µM | 6.4 µM |
| N#CC1c2ccccc2C=CN1C(=O)CCCl (stereo not drawn) | 29.4 µM | > 87.5 µM | 11.8 µM | 25.9 µM | 3.65 µM | 17.1 µM | 8.06 µM | 22.3 µM | 3.07 µM | 26.7 µM | 17.6 µM | 32 µM | 10.7 µM | 24 µM | 11.1 µM | 26.2 µM |
| O=C1NC(=N[C@@H](CO)c2ccccc2)S/C1=C\c1ccc2ncccc2c1 | 14.4 µM | > 25 µM | 5.84 µM | > 25 µM | 15.5 µM | > 25 µM | 5.86 µM | 22 µM | 1.53 µM | 12.7 µM | 11 µM | > 25 µM | > 20.2 µM | > 25 µM | 6.63 µM | > 25 µM |
| OC1(c2ccc(Cl)c(C(F)(F)F)c2)CCN(CCCC(c2ccc(F)cc2)c2ccc(F)cc2)CC1 | 0.833 µM | 1.63 µM | 0.638 µM | 1.27 µM | 0.941 µM | 1.84 µM | 0.943 µM | 1.69 µM | 0.831 µM | 2 µM | 0.784 µM | 1.45 µM | 0.889 µM | 1.58 µM | 0.739 µM | 1.47 µM |
| CCN(CC)CCCNc1ccc(C)c2sc3ccccc3c(=O)c12 | 0.808 µM | 2.22 µM | 0.446 µM | 1.76 µM | 0.492 µM | 2.55 µM | 1.3 µM | 2.81 µM | 0.268 µM | 0.988 µM | 0.602 µM | 1.96 µM | 0.201 µM | 0.435 µM | 0.279 µM | 1.09 µM |
| CC1(C)N=C(N)N=C(N)N1c1ccc(CCC(=O)Nc2ccc(S(=O)(=O)F)cc2)cc1 | 4.49 µM | > 100 µM | 0.307 µM | > 100 µM | 16.2 µM | > 100 µM | 2.94 µM | > 94.1 µM | 0.209 µM | > 100 µM | 2.01 µM | > 100 µM | 8.22 µM | > 100 µM | 0.362 µM | > 100 µM |
| Cc1ccc2c(-c3ccnc(Nc4ccc5c(c4)OCCO5)n3)c(-c3ccc(C(F)(F)F)cc3)nn2n1 | 7.01 µM | > 25 µM | 4.39 µM | > 25 µM | 1.78 µM | > 25 µM | > 18.7 µM | > 25 µM | 17 µM | > 25 µM | 20.8 µM | > 25 µM | > 25 µM | > 25 µM | 4.42 µM | > 25 µM |
| CCN(C)c1nc(N(C)CC)c2nc(N(C)CC)nc(N(C)CC)c2n1 |  | > 100 µM |  | > 100 µM |  | > 100 µM |  | > 100 µM |  | > 100 µM |  | > 100 µM |  | > 100 µM |  | > 100 µM |
| Cn1c([N+](=O)[O-])cnc1C=C1C(=O)c2ccccc2C1=O | 21.2 µM | 77.7 µM | 2.6 µM | 10.3 µM | 11.4 µM | 44.6 µM | 2.6 µM | 7.51 µM | 1.87 µM | 10.5 µM | 5.8 µM | 20.7 µM | 2.56 µM | 7.4 µM | 7.29 µM | 25.3 µM |
| CC(=O)ON1CCCC(P(=O)(OCOC(=O)C(C)(C)C)OCOC(=O)C(C)(C)C)C1=O (stereo not drawn) | 2.37 µM | 29 µM | 0.308 µM | 1.19 µM | 0.435 µM | 7.5 µM | 1.11 µM | 5.8 µM | 0.309 µM | 2.34 µM | 0.458 µM | 5.58 µM | 0.483 µM | 1.42 µM | 0.305 µM | 3.68 µM |
| CNC(=O)c1ncccc1Nc1nc(Nc2cc3c(cc2OC)CCCN3C(=O)CN(C)C)nc2[nH]ccc12 | 1.82 µM | 5.94 µM | 0.974 µM | 3.8 µM | 3.37 µM | 9.19 µM | 1.57 µM | 5.13 µM | 0.104 µM | 2.96 µM | 2.02 µM | 5.38 µM | 3.18 µM | 6.77 µM | 0.0491 µM | 1.25 µM |
| Nc1ncnc2c1N=C(c1ccc3c(c1)OCO3)CC(c1ccc(Cl)cc1)N2 (stereo not drawn) | 14.7 µM | > 100 µM | 2.51 µM | 13.5 µM | 20.9 µM | > 100 µM | 26.2 µM | > 100 µM | > 100 µM | > 100 µM | 6.19 µM | 25.8 µM | 30.4 µM | > 100 µM | 17.2 µM | > 100 µM |
| O=C(Nc1ccc(N=C=S)cc1Cl)c1cc(Br)cc(Br)c1O |  | > 100 µM |  | > 100 µM |  | > 100 µM |  | 54.6 µM |  | 62 µM |  | 53.1 µM |  | > 100 µM |  | 38 µM |
| N#CC1(c2ccc(NC(=O)c3cccnc3NCc3ccncc3)cc2)CCCC1 | 9.38 µM | 27.3 µM | 2.81 µM | 12.3 µM | 4.15 µM | 49.7 µM | 3.37 µM | 29.9 µM | 13 µM | 39.5 µM | 12 µM | 25.8 µM | 17.3 µM | > 89.8 µM | 9.96 µM | > 56.2 µM |
| CN[C@@H](C)C(=O)N[C@H]1CN(S(=O)(=O)c2cccc(S(=O)(=O)N3CC[C@H]4CC[C@@H](C(=O)NC(c5ccccc5)c5ccccc5)N4C(=O)[C@@H](NC(=O)[C@H](C)NC)C3)c2)CC[C@H]2CC[C@@H](C(=O)NC(c3ccccc3)c3ccccc3)N2C1=O | 14.4 µM | > 71.4 µM | 0.165 µM | 2.93 µM | 23.6 µM | > 100 µM | < 0.01 µM | 0.509 µM | 1.95 µM | > 100 µM | 24.4 µM | 63.8 µM | 15.6 µM | 29.7 µM | 20.7 µM | > 48.3 µM |
| O=C1c2cccc(Oc3ccccc3)c2C(=O)c2cccc(Oc3ccccc3)c21 | 22.2 µM | > 100 µM | 4.7 µM | 36.4 µM | > 100 µM | > 100 µM | 41.5 µM | > 100 µM | 77.5 µM | > 100 µM | 33.3 µM | > 100 µM | > 100 µM | > 100 µM | > 100 µM | > 100 µM |
